“And” between values parts separate entries of the source, which are not always exact repeats. Equal values may be shown once. Read-outs that look alike come from different tables or passages of the source.
Columns and labels:
[1] = Norvir package insert, cited from earlier work
[2] = Lonafarnib serum/plasma concentration in HDV patients (LC-MS/MS); format: in vivo, human; conditions: N=3
From the text: As used herein, a serum lonafarnib level or concentration can be measured from a serum sample obtained from a subject periodically (such as weekly, biweekly, monthly or according to other schedules) and the levels during intervening periods can be extrapolated. […] In some embodiments the first measurement is made no earlier than one week after the initiation of oral therapy. Serum levels of lonafarnib can be measured using art-known methods, including radioimmunoassays, chromatographic assays, mass spectrometry and the like. In some embodiments of the invention, patient serum samples were extracted using a protein precipitation method (Acetonitrile).

[3] = system: hepatitis delta virus (HDV); format: in vivo, human
[4] = cited from earlier work
[5] = 200 mg BID lonafarnib; Hanrahan et al. 2009, List et al. 2002; cited from earlier work
[6] = formulated in crystalline forms; cited from earlier work
hepatitis B virus (HBV) = assay: HBV DNA viral load and HBsAg in patients infected with HBV and HDV; conditions: 200 mg BID lonafarnib 12 weeks; baseline about 4 log IU/ml; below LOQ of 2 log IU/mL
From the text: The term “HBV viral load” of a human serum or plasma sample refers to the number of copies of human HBV DNA in a given amount of human serum or plasma sample. HBV DNA may be detected and quantitated using real-time PCR. Commercial assays for quantitating HBV DNA are available. In the United States, Abbott offers the RealTime HBV assay, which is an in vitro PCR assay for the quantitation of HBV DNA in human serum or plasma. A CE certified kit for real-time PCR-based detection of HBV is commercially available from Analytik Jena, Germany (RoboGene® HBV DNA Quantification Kit 2.0).

[7] = Adverse events / tolerability in HDV patients; conditions: N=3
[8] = Serum ALT values in HDV patients; format: in vivo, human

In the case of `CC(C)c1nc(CN(C)C(=O)N[C@H](C(=O)N[C@@H](Cc2ccccc2)C[C@H](O)[C@H](Cc2ccccc2)NC(=O)OCc2cncs2)C(C)C)cs1` [ritonavir], the “increase in AUC of the co-administered primary drug” value (“increase in AUC” below) ([1]; Fluticasone propionate, aqueous nasal spray) is listed as 350 fold, the “increase in AUC” value ([1]; sidenafil) is listed as 11 fold and the “increase in AUC” value ([1]; trimethoprim) is listed as 1.2 fold.

With `NC(=O)N1CCC(CC(=O)N2CCC([C@H]3c4ncc(Br)cc4CCc4cc(Cl)cc(Br)c43)CC2)CC1` [lonafarnib] the “Mean Serum Concentrations (lonafarnib)” value ([2]; Day 7, LNF 200 mg BID) was 2555 ng/mL, the “Mean Serum Concentrations (lonafarnib)” value ([2]; Day 7, LNF 300 mg BID) was 2994 ng/mL and the “Mean Serum Concentrations (lonafarnib)” value ([2]; Day 14, LNF 200 mg BID) was 2959 ng/mL. The “Mean Serum Concentrations (lonafarnib)” value ([2]; Day 14, LNF 300 mg BID) was 1548 ng/mL, the “Mean Serum Concentrations (lonafarnib)” value ([2]; Day 28, LNF 200 mg BID) was 2771 ng/mL and the “Mean Serum Concentrations (lonafarnib)” value ([2]; Day 28, LNF 300 mg BID) was 1984 ng/mL. For the same compound, the “Mean Serum Concentrations (lonafarnib)” value ([2]; Day 56, LNF 200 mg BID) was 1656 ng/mL, the “Mean Serum Concentrations (lonafarnib)” value ([2]; Day 56, LNF 300 mg BID) was 2032 ng/mL and the “Mean Serum Concentrations (lonafarnib)” value ([2]; Day 84, LNF 200 mg BID) was 443 ng/mL. The “Mean Serum Concentrations (lonafarnib)” value ([2]; Day 84, LNF 300 mg BID) was 977 ng/mL, the “Δ log Baseline to Day 28” value ([3]; 200 mg BID lonafarnib, individual patients 4-6) was −1.85 log and −1.06 log and −1.98 log and the “Δ log Baseline to Day 28” value ([3]; 300 mg BID lonafarnib, individual patients 1-3) was −1.95 log and −1.97 log and −2.07 log. The stability in solution ([4]; by pH) was “stable at neutral pH but will hydrolyze in acidic or basic conditions”, the water solubility [4] was “poorly water soluble” and the hygroscopicity ([4]; crystalline solid) was “non-hygroscopic”. For the same compound, the thermal stability ([4]; solid state) was “thermally stable”, the “tolerability in cancer patients” value [5] was “well tolerated” and the bioavailability in animals [6] was “low and variable bioavailability”. The “HBV VL (HBV DNA level) after suppression, patient A-001-5” value (hepatitis B virus (HBV)) was “approximately 1.5 log IU/ml”, the “Anorexia, Grade 2” value ([7]; LNF 200 mg BID) was “✓” and the “Diarrhea, Grade 2” value ([7]; LNF 200 mg BID) was “✓”. For the same compound, the “Fatique, Grade 2” value ([7]; LNF 200 mg BID) was “✓”, the “Nausea, Grade 2” value ([7]; LNF 200 mg BID) was “✓” and the “Wt Loss, Grade 2” value ([7]; LNF 200 mg BID) was “✓”. For the same compound, the “Anorexia, Grade 2” value ([7]; LNF 300 mg BID) was “✓”, the “Diarrhea, Grade 2” value ([7]; LNF 300 mg BID) was “✓” and the “Fatique, Grade 2” value ([7]; LNF 300 mg BID) was “✓”. For the same compound, the “Nausea, Grade 2” value ([7]; LNF 300 mg BID) was “✓”, the “Wt Loss, Grade 2” value ([7]; LNF 300 mg BID) was “✓” and the “ALT following ALT flare, patient A-001-5” value ([8]; 200 mg BID lonafarnib) was “ALT normalization”. For the same compound, the “ALT following ALT flare, patient A-001-1” value ([8]; 300 mg BID lonafarnib) was “ALT normalization”.
